IC50 data for 24 compounds are collected here from patent EP4667458A1 (Kanaph Therapeutics Inc., priority 2023, dated 2024).

What is called IC50 is the point on the concentration scale where inhibition reaches its midpoint. A higher IC50 goes with weaker potency in that assay.

The test has as its target T1, KRAS^G12C::SOS1 (Homo sapiens, UniProt Q07889).
T1 sequence (Q07889 1-1333): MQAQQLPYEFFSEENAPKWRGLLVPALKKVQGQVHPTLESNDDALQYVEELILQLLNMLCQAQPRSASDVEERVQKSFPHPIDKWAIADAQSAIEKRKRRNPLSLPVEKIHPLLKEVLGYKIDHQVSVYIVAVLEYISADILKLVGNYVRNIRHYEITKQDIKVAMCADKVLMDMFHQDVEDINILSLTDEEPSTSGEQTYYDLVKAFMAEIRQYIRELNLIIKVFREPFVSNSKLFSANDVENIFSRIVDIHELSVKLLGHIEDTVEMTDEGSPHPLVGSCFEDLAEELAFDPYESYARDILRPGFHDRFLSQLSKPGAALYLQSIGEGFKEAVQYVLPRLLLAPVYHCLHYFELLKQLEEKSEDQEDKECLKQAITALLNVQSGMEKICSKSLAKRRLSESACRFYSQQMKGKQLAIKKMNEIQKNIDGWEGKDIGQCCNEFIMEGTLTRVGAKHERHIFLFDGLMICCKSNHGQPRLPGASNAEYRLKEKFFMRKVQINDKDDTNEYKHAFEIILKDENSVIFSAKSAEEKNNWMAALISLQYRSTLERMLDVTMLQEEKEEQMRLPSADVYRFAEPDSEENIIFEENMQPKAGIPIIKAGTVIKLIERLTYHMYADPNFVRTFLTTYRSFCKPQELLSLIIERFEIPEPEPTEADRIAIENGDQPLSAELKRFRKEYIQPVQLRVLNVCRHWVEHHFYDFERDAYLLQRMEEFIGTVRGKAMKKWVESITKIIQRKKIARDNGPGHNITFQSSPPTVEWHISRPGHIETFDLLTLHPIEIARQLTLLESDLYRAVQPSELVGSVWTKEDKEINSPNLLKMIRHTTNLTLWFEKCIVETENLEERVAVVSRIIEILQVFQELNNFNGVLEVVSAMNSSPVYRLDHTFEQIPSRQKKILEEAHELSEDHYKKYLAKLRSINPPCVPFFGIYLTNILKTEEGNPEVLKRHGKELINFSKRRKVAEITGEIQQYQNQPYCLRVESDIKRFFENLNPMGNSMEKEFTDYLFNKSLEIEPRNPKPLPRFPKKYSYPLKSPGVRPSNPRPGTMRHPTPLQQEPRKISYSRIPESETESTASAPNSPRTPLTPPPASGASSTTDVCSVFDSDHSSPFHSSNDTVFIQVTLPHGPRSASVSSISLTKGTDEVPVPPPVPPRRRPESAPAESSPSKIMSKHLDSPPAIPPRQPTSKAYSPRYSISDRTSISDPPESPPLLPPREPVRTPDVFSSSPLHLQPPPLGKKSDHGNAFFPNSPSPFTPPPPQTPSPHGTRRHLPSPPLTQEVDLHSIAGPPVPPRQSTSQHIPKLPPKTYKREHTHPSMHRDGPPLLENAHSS
The test can be described thus: KRAS G12C::SOS1 protein-protein interaction (PPI) inhibition assay (HTRF binding kit). A general note: Time-resolved FRET reads energy transfer from a long-lived donor to a nearby acceptor.
In turn, `C[C@@H](NC(=O)c1ccc(=O)n(-c2ccccc2)n1)c1cccc(S(F)(F)(F)(F)F)c1` [Example 190, 6-oxo-N-[(1R)-1-[3-(pentafluoro-λ6-sulfanyl)phenyl]ethyl]-1-phenyl-pyridazine-3-carboxamide] displayed an IC50 of less than 1000 nM.
The result for `COc1cccc(-n2nc(C(=O)N[C@H](C)c3cccc(C(F)(F)CO)c3F)ccc2=O)c1F` [Example 184, N-[(1R)-1-[3-(1,1-difluoro-2-hydroxy-ethyl)-2-fluoro-phenyl]ethyl]-1-(2-fluoro-3-methoxyphenyl)-6-oxo-pyridazine-3-carboxamide] reads less than 1000 nM; that for `CC(=O)Nc1cc(=O)n(-c2ccccc2F)nc1C(=O)N[C@H](C)c1cc(N)cc(C(F)(F)F)c1` [Example 382, 4-acetamido-N-[(1R)-1-[3-amino-5-(trifluoromethyl)phenyl]ethyl]-1-(2-fluorophenyl)-6-oxo-pyridazine-3-carboxamide], less than 1000 nM; that for `C[C@@H](NC(=O)c1ccc(=O)n(-c2cccc(-c3ccn(C)n3)c2)n1)c1cccc(C(F)(F)CO)c1F` [Example 330, N-[(1R)-1-[3-(1,1-difluoro-2-hydroxy-ethyl)-2-fluoro-phenyl]ethyl]-1-[3-(1-methylpyrazol-3-yl)phenyl]-6-oxo-pyridazine-3-carboxamide], less than 1000 nM.
The compound `C[C@@H](NC(=O)c1ccc(=O)n(-c2cccc(-c3cnnn3C)c2F)n1)c1cc(N)cc(C(F)(F)F)c1` [Example 359, N-[(1R)-1-[3-amino-5-(trifluoromethyl)phenyl]ethyl]-1-[2-fluoro-3-(3-methyltriazol-4-yl)phenyl]-6-oxo-pyridazine-3-carboxamide] came in with an IC50 of less than 1000 nM.
The value for `CNCc1cc(F)ccc1-c1ccc([C@@H](C)NC(=O)c2ccc(=O)n(-c3ccccc3F)n2)s1` [Example 279, N-[(1R)-1-[5-[4-fluoro-2-(methylaminomethyl)phenyl]-2-thienyl]ethyl]-1-(2-fluorophenyl)-6-oxo-pyridazine-3-carboxamide] was less than 1000 nM.
The result for `C[C@@H](NC(=O)c1ccc(=O)n(-c2c(F)cccc2F)n1)c1cccc(C(F)(F)CO)c1F` [Example 357, N-[(1R)-1-[3-(1,1-difluoro-2-hydroxy-ethyl)-2-fluoro-phenyl]ethyl]-1-(2,6-difluorophenyl)-6-oxo-pyridazine-3-carboxamide] reads 1000 to 10000 nM.
The value for `C[C@H](NC(=O)c1ccc(=O)n(-c2ccccc2F)n1)c1cc(N)cc(C(F)(F)F)n1` [Example 394, N-[(1S)-1-[4-amino-6-(trifluoromethyl)-2-pyridyl]ethyl]-1-(2-fluorophenyl)-6-oxo-pyridazine-3-carboxamide] was greater than 10000 nM.
Compound `C[C@@H](NC(=O)c1ccc(=O)n(-c2ccccc2F)n1)c1cccc(C(F)(F)CO)c1F` [Example 217, N-[(1R)-1-[3-(1,1-difluoro-2-hydroxy-ethyl)-2-fluoro-phenyl]ethyl]-1-(2-fluorophenyl)-6-oxo-pyridazine-3-carboxamide] had an IC50 of less than 1000 nM.
The result for `C[C@@H](NC(=O)c1nn(-c2ccccc2F)c(=O)cc1NS(C)(=O)=O)c1cc(N)cc(C(F)(F)F)c1` [Example 384, N-[(1R)-1-[3-amino-5-(trifluoromethyl)phenyl]ethyl]-1-(2-fluorophenyl)-4-(methanesulfonamido)-6-oxo-pyridazine-3-carboxamide] reads less than 1000 nM; that for `C[C@@H](NC(=O)c1ccc(=O)n(CCN(C)C)n1)c1cc(N)cc(C(F)(F)F)c1` [Example 229, N-[(1R)-1-[3-amino-5-(trifluoromethyl)phenyl]ethyl]-1-[2-(dimethylamino)ethyl]-6-oxo-pyridazine-3-carboxamide], 1000 to 10000 nM; that for `C[C@@H](NC(=O)c1ccc(=O)n(-c2cccc(-c3ccnn3C)c2)c1)c1cc(N)cc(C(F)(F)F)c1` [Example 321, N-[(1R)-1-[3-amino-5-(trifluoromethyl)phenyl]ethyl]-1-[3-(2-methylpyrazol-3-yl)phenyl]-6-oxo-pyridine-3-carboxamide], less than 1000 nM.
Regarding `C[C@@H](NC(=O)c1ccc(=O)n(-c2cccc(-c3cnnn3C)c2F)n1)c1cccc(C(F)(F)CO)c1F` [Example 358, N-[(1R)-1-[3-(1,1-difluoro-2-hydroxy-ethyl)-2-fluoro-phenyl]ethyl]-1-[2-fluoro-3-(3-methyltriazol-4-yl)phenyl]-6-oxo-pyridazine-3-carboxamide], the concentration for half-maximal inhibition (IC50) is less than 1000 nM.
In turn, `C[C@@H](NC(=O)c1ccc(=O)n(-c2cccc(-c3nccs3)c2)n1)c1cccc(C(F)(F)CO)c1F` [Example 336, N-[(1R)-1-[3-(1,1-difluoro-2-hydroxy-ethyl)-2-fluoro-phenyl]ethyl]-6-oxo-1-(3-thiazol-2-ylphenyl)pyridazine-3-carboxamide] gave an IC50 of less than 1000 nM.
The value for `CC(C)c1cccc([C@@H](C)NC(=O)c2ccc(=O)n(-c3ccccc3)n2)c1` [Example 201, N-[(1R)-1-(3-isopropylphenyl)ethyl]-6-oxo-1-phenyl-pyridazine-3-carboxamide] was less than 1000 nM; that for `C[C@@H](NC(=O)c1ccc(=O)n(-c2ccccc2)n1)c1cc(O)cc(F)c1` [Example 219, N-[(1R)-1-(3-fluoro-5-hydroxy-phenyl)ethyl]-6-oxo-1-phenyl-pyridazine-3-carboxamide] was less than 1000 nM; that for `C[C@@H](NC(=O)c1nn(-c2ccccc2F)c(=O)cc1O)c1cc(N)cc(C(F)(F)F)c1` [Example 363, N-[(1R)-1-[3-amino-5-(trifluoromethyl)phenyl]ethyl]-1-(2-fluorophenyl)-4-hydroxy-6-oxo-pyridazine-3-carboxamide] was greater than 10000 nM.
The compound `C[C@@H](NC(=O)c1ccc(=O)n(-c2ccncc2)c1)c1cccc(C(F)(F)CO)c1F` [Example 162, N-[(1R)-1-[3-(1,1-difluoro-2-hydroxy-ethyl)-2-fluoro-phenyl]ethyl]-6-oxo-1-(4-pyridyl)pyridine-3-carboxamide] registered a concentration for half-maximal inhibition (IC50) of less than 1000 nM.
The value for `CNCc1ccc(C)cc1-c1ccc([C@@H](C)NC(=O)c2ccc(=O)n(-c3cccnc3F)n2)s1` [Example 402, 1-(2-fluoropyridin-3-yl)-N-[(1R)-1-(5-{5-methyl-2-[(methylamino)methyl]phenyl}thiophen-2-yl)ethyl]-6-oxo-1,6-dihydropyridazine-3-carboxamide] was less than 1000 nM; that for `C[C@@H](NC(=O)c1ccc(=O)n(-c2cccc(-c3ccccn3)c2)n1)c1cc(N)cc(C(F)(F)F)c1` [Example 325, N-[(1R)-1-[3-amino-5-(trifluoromethyl)phenyl]ethyl]-6-oxo-1-[3-(2-pyridyl)phenyl]pyridazine-3-carboxamide] was less than 1000 nM.
The result for `COc1cc(-n2nc(C(=O)N[C@H](C)c3cccc(C(F)(F)CO)c3F)ccc2=O)ccn1` [Example 193, N-[(1R)-1-[3-(1,1-difluoro-2-hydroxy-ethyl)-2-fluoro-phenyl]ethyl]-1-(2-methoxy-4-pyridyl)-6-oxo-pyridazine-3-carboxamide] reads less than 1000 nM; that for `C[C@@H](NC(=O)c1ccc(=O)n(-c2cccc(C(=O)N3CCOCC3)c2F)n1)c1cc(N)cc(C(F)(F)F)c1` [Example 233, (R)-N-(1-(3-amino-5-(trifluoromethyl)phenyl)ethyl)-1-(2-fluoro-3-(morpholine-4-carbonyl)phenyl)-6-oxo-1,6-dihydropyridazine-3-carboxamide], less than 1000 nM; that for `CNCc1ccc(F)cc1-c1ccc([C@@H](C)NC(=O)c2ccc(=O)n(-c3cnn(C)c3)n2)s1` [Example 296, N-[(1R)-1-[5-[5-fluoro-2-(methylaminomethyl)phenyl]-2-thienyl]ethyl]-1-(1-methylpyrazol-4-yl)-6-oxo-pyridazine-3-carboxamide], less than 1000 nM.
Take `COc1ccc(-n2nc(C(=O)N[C@H](C)c3cccc(C(F)(F)CO)c3F)ccc2=O)c(F)c1` [Example 215, N-[(1R)-1-[3-(1,1-difluoro-2-hydroxy-ethyl)-2-fluoro-phenyl]ethyl]-1-(2-fluoro-4-methoxy-phenyl)-6-oxo-pyridazine-3-carboxamide]: the half-inhibitory concentration (IC50) was less than 1000 nM.
